According to the supplement of paper PMC10307832:

Legend:
Assay in all cases: relative viability (nuclei count vs DMSO), 5 days (fraction); higher = more cells survive
[1] = compound: COC1=CC=C(C=C1)CN2C=CC3=C2C=C(C=C3)C(=O)NO + NC(=O)Nc1cc(-c2cccc(F)c2)sc1C(=O)N[C@H]1CCCNC1 [AZD7762] (partner 0.2 µM)
Procedure, shortened: (§1)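 One day after seeding in 1536-well plates, lung cancer cell lines were dosed by pin tool. Dosing was either single-drug or a fixed anchor-drug dose plus five library-drug doses (not always all listed) in √10 steps. After 5 days, nuclei were stained in one fix-and-stain step and counted on 4× images, and relative viability is the nuclei count of treated wells over that of vehicle wells, given as the median of duplicate plates.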

[2] = compound: COC1=CC=C(C=C1)CN2C=CC3=C2C=C(C=C3)C(=O)NO + O=C(c1cc(Cc2n[nH]c(=O)c3ccccc23)ccc1F)N1CCN(C(=O)C2CC2)CC1 [Olaparib] (partner 8 µM)
Procedure, shortened: as §1

Veliparib + Foretinib = compound: C[C@]1(c2nc3c(C(N)=O)cccc3[nH]2)CCCN1 [Veliparib] + COc1cc2c(Oc3ccc(NC(=O)C4(C(=O)Nc5ccc(F)cc5)CC4)cc3F)ccnc2cc1OCCCN1CCOCC1 [Foretinib] (partner 0.25 µM)
Procedure, shortened: as §1

Veliparib + Crizotinib = compound: C[C@]1(c2nc3c(C(N)=O)cccc3[nH]2)CCCN1 [Veliparib] + C[C@@H](Oc1cc(-c2cnn(C3CCNCC3)c2)cnc1N)c1c(Cl)ccc(F)c1Cl [Crizotinib] (partner 1 µM)
Procedure, shortened: as §1

Row | Cell Line | relative viability ([1]; first compound 0.08 µM) | relative viability ([1]; first compound 0.253 µM) | relative viability ([1]; first compound 0.8 µM) | relative viability ([1]; first compound 2.53 µM) | relative viability ([1]; first compound 8 µM) | relative viability ([2]; first compound 0.253 µM) | relative viability ([2]; first compound 0.8 µM) | relative viability ([2]; first compound 2.53 µM) | relative viability ([2]; first compound 8 µM) | relative viability (Veliparib + Foretinib; first compound 0.02 µM) | relative viability (Veliparib + Foretinib; first compound 0.06325 µM) | relative viability (Veliparib + Foretinib; first compound 0.2 µM) | relative viability (Veliparib + Foretinib; first compound 0.6325 µM) | relative viability (Veliparib + Foretinib; first compound 2 µM) | relative viability (Veliparib + Crizotinib; first compound 0.02 µM) | relative viability (Veliparib + Crizotinib; first compound 0.06325 µM) | relative viability (Veliparib + Crizotinib; first compound 0.2 µM) | relative viability (Veliparib + Crizotinib; first compound 0.6325 µM) | relative viability (Veliparib + Crizotinib; first compound 2 µM) | relative viability ([2]; first compound 0.08 µM)
1 | HOP-62 | 0.358 | 0.691 | 0.72 | 0.554 | 0.484 | 0.47 | 0.489 | 0.396 | 0.384 | 1.17 | 0.983 | 0.99 | 1.13 | 1.22 | 0.981 | 0.795 | 0.836 | 0.866 | 0.933 | 
2 | LC-2-ad | 0.905 | 0.874 | 0.865 | 0.898 | 0.835 | 0.343 | 0.681 | 0.688 | 0.709 |  | 0.894 | 0.903 | 0.837 | 0.939 | 0.458 | 0.396 | 0.483 | 0.46 | 0.443 | 0.696
3 | LCLC-97TM1 |  | 0.267 | 0.205 | 0.162 | 0.188 | 0.422 | 0.375 | 0.36 | 0.38 | 0.875 | 0.863 | 0.862 | 0.939 | 0.989 | 0.248 | 0.349 | 0.354 |  | 0.234 | 
4 | LCLC-103H | 0.764 | 0.851 | 0.809 | 0.851 | 0.679 | 0.777 | 0.773 | 0.781 | 0.708 | 0.712 | 0.711 | 0.95 | 0.701 | 0.767 | 1.1 | 0.982 | 1.02 | 0.875 | 1.09 | 0.743
5 | LK-2 |  | 0.439 | 0.45 | 0.352 | 0.375 | 0.792 | 0.787 | 0.688 | 0.722 |  | 1.26 | 1.32 | 1.13 | 1.15 |  | 0.179 | 0.149 | 0.232 | 0.183 | 
6 | LOU-NH91 |  | 0.749 | 0.756 | 0.748 | 0.705 | 0.95 | 0.928 | 0.903 | 0.894 | 0.9 | 0.889 | 0.977 | 0.924 | 0.97 | 0.729 | 0.719 | 0.745 | 0.688 | 0.774 | 
7 | LU99A |  | 0.392 | 0.384 | 0.276 | 0.208 | 0.277 | 0.262 | 0.252 | 0.26 | 0.75 | 0.744 | 0.752 | 0.663 | 0.721 | 0.604 | 0.527 | 0.46 | 0.44 | 0.625 | 
8 | LXF-289 |  | 1.06 | 1.04 | 1.07 | 1.02 | 1.05 | 1.11 | 1.11 | 1.11 | 0.986 | 0.956 | 0.957 | 0.984 | 0.962 | 0.784 | 0.777 | 0.818 | 0.727 | 0.83 | 
9 | NCI-H23 | 0.257 | 0.312 | 0.32 | 0.271 | 0.154 | 0.282 | 0.314 | 0.322 | 0.304 | 1.08 | 0.882 | 1.01 | 0.935 | 1.08 | 0.52 | 0.521 | 0.606 | 0.596 | 0.625 | 0.302
